13 compounds from PubChem BioAssay (NCI) can be followed below.

Test systems include CCRF-CEM leukemia; DU-145 prostate; HS 578T breast; LOX IMVI melanoma; M14 melanoma; NCI-H226 lung; NCI-H460 lung; NCI/ADR-RES ovarian; OVCAR-5 ovarian; SNB-19 CNS; UO-31 renal.
What all share (experiment): DTP human tumour cell line panel, 48 h

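Five concentrations, 48 hours, 96-well plates. TGI: total growth inhibition.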

In the case of `c1ccc2[nH]c3[nH]c4[nH]c5ccccc5[nH]c4[nH]c3[nH]c2c1`, the TGI in the assay on CCRF-CEM leukemia, in the assay on DU-145 prostate, in the assay on HS 578T breast, in the assay on LOX IMVI melanoma, in the assay on M14 melanoma and in the assay with NCI-H226 lung was greater than 100 µM throughout. Further, the TGI in the assay with NCI-H460 lung, with NCI/ADR-RES ovarian, in the assay with OVCAR-5 ovarian, in the assay with SNB-19 CNS and in the assay with UO-31 renal was greater than 100 µM in each case.

With `CC(NC(=O)/C(C#N)=C/c1ccc2[nH]ccc2c1)c1ccccc1` (stereo unspecified), the total growth inhibition concentration (TGI) in the assay on CCRF-CEM leukemia stood at 45.8 µM; in the assay on DU-145 prostate, 39.8 µM; in the assay on HS 578T breast, 66.4 µM; in the assay on LOX IMVI melanoma, 31.8 µM; in the assay on M14 melanoma, 37.2 µM; in the assay on NCI-H226 lung it was 53.8 µM. Also, the TGI was 34.9 µM in the assay on NCI-H460 lung; greater than 100 µM in the assay with NCI/ADR-RES ovarian; 37.3 µM with OVCAR-5 ovarian; 45.1 µM with SNB-19 CNS; 28.3 µM in the assay with UO-31 renal.

Take `CC(=O)NCC1(c2ccccc2)CCN(CC2COc3ccccc3O2)CC1` (stereo unspecified): the TGI in the assay on CCRF-CEM leukemia, in the assay on DU-145 prostate, in the assay with HS 578T breast, in the assay with LOX IMVI melanoma, in the assay on M14 melanoma and in the assay on NCI-H226 lung was greater than 100 µM throughout. Besides, the total growth inhibition concentration (TGI) with NCI-H460 lung, in the assay on NCI/ADR-RES ovarian, in the assay with OVCAR-5 ovarian, with SNB-19 CNS and in the assay on UO-31 renal was greater than 100 µM throughout.

Turning to `CC1(C)C=C(/C=N/Nc2ccc(Br)cc2)C(C#N)=C(O)C1(C#N)C#N`, the concentration for total growth inhibition (TGI) in the assay on CCRF-CEM leukemia, in the assay with DU-145 prostate, in the assay on HS 578T breast, in the assay on LOX IMVI melanoma, with M14 melanoma and with NCI-H226 lung was greater than 100 µM throughout. The TGI is greater than 100 µM in the assay on NCI-H460 lung; greater than 100 µM with NCI/ADR-RES ovarian; greater than 100 µM in the assay with OVCAR-5 ovarian; greater than 100 µM in the assay with SNB-19 CNS; 86 µM with UO-31 renal.

Regarding `COc1cc(C)cc2c1C(=O)C(Br)=CC2=O`, the TGI turned out to be 3.92 µM in the assay on CCRF-CEM leukemia; 32.4 µM in the assay on DU-145 prostate; 71.5 µM with HS 578T breast; 25.7 µM in the assay on LOX IMVI melanoma; 14.1 µM with M14 melanoma; 32.3 µM in the assay with NCI-H226 lung. Besides, the total growth inhibition concentration (TGI) was determined as 38.4 µM in the assay on NCI-H460 lung; 74.9 µM in the assay on NCI/ADR-RES ovarian; 36.6 µM in the assay on OVCAR-5 ovarian; 30.2 µM in the assay on SNB-19 CNS; 11.3 µM in the assay on UO-31 renal.

Take `COc1ccc(-c2c3c(n(C4OC(CO)C(O)C(O)C4O)c(=S)c2C#N)CC(C)(C)CC3=O)cc1` (stereo unspecified): the TGI in the assay on CCRF-CEM leukemia, in the assay with DU-145 prostate, in the assay on HS 578T breast, in the assay with LOX IMVI melanoma, in the assay with M14 melanoma and with NCI-H226 lung was greater than 100 µM in each case. Moreover, the TGI in the assay with NCI-H460 lung, in the assay on NCI/ADR-RES ovarian, in the assay on OVCAR-5 ovarian, in the assay with SNB-19 CNS and with UO-31 renal was greater than 100 µM each time.

For `CCCCCC(=O)OCC(=O)[C@H]1[C@H](C)C[C@H]2[C@@H]3C[C@H](F)C4=C/C(=N/OC(=O)c5cccc6c(=O)c7ccccc7[nH]c56)C=C[C@]4(C)[C@H]3[C@@H](O)C[C@@]21C`, the TGI is greater than 100 µM with CCRF-CEM leukemia; greater than 100 µM with DU-145 prostate; greater than 100 µM in the assay with HS 578T breast; 35.7 µM with LOX IMVI melanoma; 77.9 µM in the assay with M14 melanoma; greater than 100 µM with NCI-H226 lung. The total growth inhibition concentration (TGI) was 41.1 µM in the assay with NCI/ADR-RES ovarian, greater than 100 µM in the assay with OVCAR-5 ovarian, greater than 100 µM with SNB-19 CNS and 50 µM with UO-31 renal.

Take `CS(=O)(=O)c1[nH]nc2[nH]c(=O)[nH]c(=O)c12`: the total growth inhibition concentration (TGI) with CCRF-CEM leukemia, with DU-145 prostate, in the assay with HS 578T breast, in the assay on LOX IMVI melanoma, in the assay on M14 melanoma and with NCI-H226 lung was greater than 10 µM each time. The TGI with NCI-H460 lung, in the assay with NCI/ADR-RES ovarian, in the assay with OVCAR-5 ovarian and in the assay with SNB-19 CNS was greater than 10 µM in each case.

With `CC1(C)CCCCCCCCCC(C)(CCCO)C1=O` (stereo unspecified), the concentration for total growth inhibition (TGI) with CCRF-CEM leukemia stood at 92.4 µM; in the assay on DU-145 prostate it was 31 µM; in the assay with HS 578T breast, 37.9 µM; in the assay on LOX IMVI melanoma, 32.9 µM; in the assay on M14 melanoma, 27.4 µM; with NCI-H226 lung, 31 µM. The TGI was found to be 33.6 µM in the assay on NCI-H460 lung; 30.5 µM with NCI/ADR-RES ovarian; 28.8 µM in the assay on OVCAR-5 ovarian; 31.9 µM in the assay with SNB-19 CNS; 24.4 µM in the assay with UO-31 renal.

Turning to `COc1ccc2c(c1)N(C(C)=O)CN1C(=O)CCC21` (stereo unspecified), the TGI in the assay with CCRF-CEM leukemia, in the assay with DU-145 prostate, in the assay on HS 578T breast, with LOX IMVI melanoma, in the assay on M14 melanoma and in the assay on NCI-H226 lung was greater than 100 µM each time. Further, the concentration for total growth inhibition (TGI) in the assay with NCI-H460 lung, in the assay with NCI/ADR-RES ovarian, in the assay on OVCAR-5 ovarian, in the assay with SNB-19 CNS and with UO-31 renal was greater than 100 µM in each case.

Consider `O=c1oc2cc(O)ccc2c(O)c1C(c1ccccn1)c1c(O)c2ccc(O)cc2oc1=O`, for which the concentration for total growth inhibition (TGI) in the assay with CCRF-CEM leukemia, with DU-145 prostate, in the assay with HS 578T breast, in the assay on LOX IMVI melanoma, with M14 melanoma and in the assay on NCI-H226 lung was greater than 100 µM in each case. The TGI with NCI-H460 lung, with NCI/ADR-RES ovarian, in the assay on OVCAR-5 ovarian, in the assay with SNB-19 CNS and in the assay on UO-31 renal was greater than 100 µM throughout.

As to `O=c1oc2ccccc2cc1-c1nnc(-c2ccccc2)s1`, the concentration for total growth inhibition (TGI) in the assay on CCRF-CEM leukemia, in the assay on DU-145 prostate, with HS 578T breast, with LOX IMVI melanoma, in the assay on M14 melanoma and in the assay on NCI-H226 lung was greater than 100 µM in each case. The concentration for total growth inhibition (TGI) in the assay with NCI-H460 lung is greater than 100 µM; with NCI/ADR-RES ovarian, greater than 67.2 µM; with OVCAR-5 ovarian it was greater than 100 µM; in the assay on SNB-19 CNS, greater than 84.7 µM; in the assay with UO-31 renal it was greater than 100 µM.

Turning to `CC(=O)OCC1OC(n2c3c(c(-c4ccc(Cl)cc4)c(C#N)c2=S)C(=O)CC(C)(C)C3)C(OC(C)=O)C(OC(C)=O)C1OC(C)=O` (stereo unspecified), the TGI is greater than 100 µM in the assay on CCRF-CEM leukemia; greater than 100 µM with DU-145 prostate; 62.4 µM with HS 578T breast; 29.8 µM in the assay with LOX IMVI melanoma; greater than 100 µM in the assay on M14 melanoma; greater than 81 µM in the assay with NCI-H226 lung. Further, the concentration for total growth inhibition (TGI) was greater than 100 µM in the assay with NCI-H460 lung; greater than 67.8 µM in the assay on NCI/ADR-RES ovarian; greater than 100 µM with OVCAR-5 ovarian; greater than 86.8 µM in the assay with SNB-19 CNS; greater than 78.5 µM in the assay on UO-31 renal.
